The numbers were not newly measured in patent publication US11197823B2, “Topiramate oral liquid suspension and use thereof” (OWP Pharmaceuticals, Inc., priority 2019, dated 2021), which cites them from elsewhere.

Structures are written as SMILES.

Take `CC1(C)O[C@@H]2[C@@H](CO[C@@]3(COS(N)(=O)=O)OC(C)(C)O[C@@H]23)O1` [Topiramate, 2,3:4,5-Di-O-isopropylidene-β-D-fructopyranose sulfamate]: the “solubility in organic solvents and alkaline solutions” value (acetone, dimethyl sulfoxide, ethanol, and alkaline solutions containing sodium hydroxide or sodium phosphate) is listed as “freely soluble”. The solubility in water result (water, room temperature) is listed as “approximately 9.8 mg/mL”.
